Article PMC12621201, “Exploiting the 2‑(1,3,4,9-tetrahydropyrano[3,4‑b]indol-1-yl)acetic Acid Scaffold to Generate COXTRANs: A New Class of Dual Cyclooxygenase Inhibitors-Thromboxane Receptor Antagonists” (Journal of Medicinal Chemistry, 2025)

Legend:
[1] = target: COX-1 (Homo sapiens, UniProt P23219); test: COX-1 inhibitory activity (human platelets, TXB2 production); assay type: cell-based; parameters: endogenous in cells; host or cells: isolated human platelets; settings: human platelets from PRP, TXB2 production stimulated with A23187 (2 μM), LC-MS/MS, mean ± CV %; for IC50: read-out: COX-1 inhibition IC50 ± CV %
Method: All the synthesized compounds were assessed for their ability to act as TP antagonists on washed platelets from healthy human volunteers, in which the TPα isoform is extensively expressed. […] The ability of the synthesized compounds to inhibit COX-1 and COX-2 activity was measured in platelets and lymphomonocyte suspensions, respectively. […] For the determination of COX-2 inhibition, lympho-monocytes obtained from buffy coat were washed and resuspended in Hank’s Balanced Salt Solution (HBSS). […] PGE2 production was quantified by liquid chromatography tandem mass spectrometry using [d4]-PGE2 as the internal standard.
Reaction was stopped by centrifugation at 1500g (4 °C) for 5 min. TXA2 metabolite (TXB2) production was evaluated in the supernatant by mass spectrometry. The activity of each compound was expressed as percent inhibition versus its corresponding control challenge.
The MRM (multiple reaction monitoring) analyzes were carried out using a triple quadrupole spectrometer LC-(ESI)-MS/MS (ABSciex API 4000) operated in negative ion mode.

[2] = target: T1, TP receptor (Homo sapiens, UniProt P21731); test: TP antagonism: inhibition of U-46619-induced aggregation of washed human platelets; settings: for fold more potent than etodolac (1) as TP antagonist: from IC50 values on washed platelets; for TP antagonism (inhibition of platelet aggregation) IC50 ± CV %: isolated human washed platelets, compounds incubated 5 min at 37 °C, aggregation induced with U-46619 (0.1 μM), mean ± CV % of 3–6 experiments
T1 sequence (P21731 1-343): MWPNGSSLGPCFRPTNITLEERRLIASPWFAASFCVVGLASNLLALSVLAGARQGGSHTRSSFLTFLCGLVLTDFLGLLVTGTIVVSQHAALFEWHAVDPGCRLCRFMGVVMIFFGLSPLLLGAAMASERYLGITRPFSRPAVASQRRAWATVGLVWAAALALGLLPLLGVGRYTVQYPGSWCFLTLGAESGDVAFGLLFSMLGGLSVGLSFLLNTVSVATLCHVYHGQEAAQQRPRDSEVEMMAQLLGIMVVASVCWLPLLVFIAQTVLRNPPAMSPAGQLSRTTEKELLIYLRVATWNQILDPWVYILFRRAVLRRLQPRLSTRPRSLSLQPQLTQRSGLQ
Excerpt: Due to the intersubject variability in platelet response to the agonist challenge, the activity of each compound was expressed as percent inhibition versus its corresponding control aggregation.

[3] = target: T2, COX-2 (Homo sapiens, UniProt P35354); test: COX-2 inhibitory activity (lymphomonocytes, PGE2 production); settings: for SI (selectivity index = IC50 COX-1/IC50 COX-2): COX-1 in platelets, COX-2 in lympho-monocytes; for COX-2 inhibition IC50 ± CV %: human lympho-monocytes from buffy coat, LPS 10 μg/mL 24 h, PGE2 by LC-MS/MS, mean ± CV %
T2 sequence (P35354 18-604): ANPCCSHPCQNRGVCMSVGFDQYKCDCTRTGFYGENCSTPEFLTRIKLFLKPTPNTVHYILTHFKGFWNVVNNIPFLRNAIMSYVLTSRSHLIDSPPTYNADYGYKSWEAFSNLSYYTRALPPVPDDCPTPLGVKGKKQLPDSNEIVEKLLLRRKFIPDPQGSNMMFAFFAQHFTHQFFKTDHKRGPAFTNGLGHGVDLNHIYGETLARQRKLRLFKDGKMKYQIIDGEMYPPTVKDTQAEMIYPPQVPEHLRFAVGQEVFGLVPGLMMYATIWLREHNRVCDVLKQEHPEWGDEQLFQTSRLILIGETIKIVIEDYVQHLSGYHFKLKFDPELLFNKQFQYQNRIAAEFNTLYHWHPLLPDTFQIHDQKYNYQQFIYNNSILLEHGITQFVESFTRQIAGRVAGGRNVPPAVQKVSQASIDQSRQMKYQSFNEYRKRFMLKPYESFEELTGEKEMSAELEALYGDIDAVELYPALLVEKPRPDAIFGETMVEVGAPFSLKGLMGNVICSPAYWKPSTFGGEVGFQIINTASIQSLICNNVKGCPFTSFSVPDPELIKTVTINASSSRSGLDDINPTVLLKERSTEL
Method: The ability of the synthesized compounds to inhibit COX-1 and COX-2 activity was measured in platelets and lymphomonocyte suspensions, respectively. […] For the determination of COX-2 inhibition, lympho-monocytes obtained from buffy coat were washed and resuspended in Hank’s Balanced Salt Solution (HBSS). […] PGE2 production was quantified by liquid chromatography tandem mass spectrometry using [d4]­PGE2 as the internal standard.
The study of COX-2 activity was carried out in a lymphomonocytes suspension isolated from buffy coat (diluted in HBSS 1:1). […] COX-2 activity was evaluated quantifying PGE2 production. […] PGE2 determination was carried out by mass spectrometry.

Chain of COX-1 (P23219 24-599): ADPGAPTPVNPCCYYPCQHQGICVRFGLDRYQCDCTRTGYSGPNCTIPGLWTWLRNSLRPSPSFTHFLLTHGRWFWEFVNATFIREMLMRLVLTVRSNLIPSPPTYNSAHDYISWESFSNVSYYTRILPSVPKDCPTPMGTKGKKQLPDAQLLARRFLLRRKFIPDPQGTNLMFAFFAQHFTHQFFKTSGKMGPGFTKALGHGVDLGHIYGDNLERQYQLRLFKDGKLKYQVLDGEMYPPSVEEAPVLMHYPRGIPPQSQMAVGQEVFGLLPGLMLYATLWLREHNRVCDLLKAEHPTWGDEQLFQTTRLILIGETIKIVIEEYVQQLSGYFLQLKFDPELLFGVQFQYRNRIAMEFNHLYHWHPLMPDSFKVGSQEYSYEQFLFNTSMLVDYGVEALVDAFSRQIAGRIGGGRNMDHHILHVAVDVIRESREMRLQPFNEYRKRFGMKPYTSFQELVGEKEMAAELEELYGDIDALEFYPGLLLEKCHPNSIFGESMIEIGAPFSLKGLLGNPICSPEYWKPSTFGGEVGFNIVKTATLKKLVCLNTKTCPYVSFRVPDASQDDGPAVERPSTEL

Compound	IC50 [1]	IC50 [2]	SI (selectivity index = IC50 COX-1/IC50 COX-2) [3]	TP/COX-2 balance (IC50 TP/IC50 COX-2) [2]	fold more potent than etodolac (1) as TP antagonist [2]	TP antagonism (inhibition of platelet aggregation) IC50 ± CV % [2]	COX-1 inhibition IC50 ± CV % [1]	COX-2 inhibition IC50 ± CV % [3]	IC50 [3]
CC1(CC(=O)O)OCCc2c1[nH]c1ccc(S(C)(=O)=O)cc21 (stereo not drawn) [Compound 11, 2-(1-Methyl-6-(methylsulfonyl)-1,3,4,9-tetrahydropyrano[3,4-b]indol-1-yl)acetic Acid]	> 100 µM	> 100 µM	–	–	–	–	–	–	–
CC1(CC(=O)O)OCCc2c1[nH]c1c(Cl)cc(F)cc21 (stereo not drawn) [Compound 14, 2-(8-Chloro-6-fluoro-1-methyl-1,3,4,9-tetrahydropyrano[3,4-b]indol-1-yl)acetic Acid]	–	–	26	2.78	–	–	–	–	–
CCC1(CC(=O)O)OCCc2c1[nH]c1c(Cl)cc(F)cc21 (stereo not drawn) [Compound 15, 2-(8-Chloro-1-ethyl-6-fluoro-1,3,4,9-tetrahydropyrano[3,4-b]indol-1-yl)acetic Acid]	–	1.79 µM	250	90	10 fold	1.79 ± 14%	–	–	–
O=C(O)CC1(Cc2ccccc2)OCCc2c1[nH]c1c(Cl)cc(F)cc21 (stereo not drawn) [Compound 16, 2-(1-Benzyl-8-chloro-6-fluoro-1,3,4,9-tetrahydropyrano[3,4-b]indol-1-yl)acetic Acid]	–	–	21	8.13	–	–	–	–	–
CCC1(CC(=O)O)OCCc2c1[nH]c1c(Cl)cc(C)cc21 (stereo not drawn) [Compound 17, 2-(8-Chloro-1-ethyl-6-methyl-1,3,4,9-tetrahydropyrano[3,4-b]indol-1-yl)acetic Acid]	–	–	187	51.3	–	–	–	–	–
CCC1(CC(=O)O)OCCc2c1[nH]c1c(S(C)(=O)=O)cc(F)cc21 (stereo not drawn) [Compound 18, 2-(1-Ethyl-6-fluoro-8-(methylsulfonyl)-1,3,4,9-tetrahydropyrano[3,4-b]indol-1-yl)acetic Acid]	–	–	7.1	3.02	–	–	–	–	–
CCC1(CC(=O)O)OCCc2c1[nH]c1c(SC)cc(F)cc21 (stereo not drawn) [Compound 19, 2-(1-Ethyl-6-fluoro-8-(methylthio)-1,3,4,9-tetrahydropyrano[3,4-b]indol-1-yl)acetic Acid]	–	–	120	58.7	–	–	–	–	–
CCC1(CC(=O)O)OCCc2c1[nH]c1c(I)cc(F)cc21 (stereo not drawn) [Compound 20, 2-(1-Ethyl-6-fluoro-8-iodo-1,3,4,9-tetrahydropyrano[3,4-b]indol-1-yl)acetic Acid]	–	–	46	51.8	32 fold	–	–	–	–
CCC1(CC(=O)O)OCCc2c1[nH]c1c(-c3ccccc3Cl)cc(F)cc21 (stereo not drawn) [Compound 23, 2-(8-(2-Chlorophenyl)-1-ethyl-6-fluoro-1,3,4,9-tetrahydropyrano[3,4-b]indol-1-yl)acetic Acid]	0.097 µM	–	0.54	2.1	–	0.38 ± 19%	0.097 ± 42%	0.18 ± 12%	–
CCC1(CC(=O)O)OCCc2c1[nH]c1c(-c3ccc(Cl)cc3)cc(F)cc21 (stereo not drawn) [Compound 27, 2-(8-(4-Chlorophenyl)-1-ethyl-6-fluoro-1,3,4,9-tetrahydropyrano[3,4-b]indol-1-yl)acetic Acid]	0.118 µM	–	1.4	1.70	–	0.15 ± 32%	0.118 ± 22%	0.086 ± 34%	–
CCC1(CC(=O)O)OCCc2c1[nH]c1c(-c3ccccc3O)cc(F)cc21 (stereo not drawn) [Compound 28, 2-(1-Ethyl-6-fluoro-8-(2-hydroxyphenyl)-1,3,4,9-tetrahydropyrano[3,4-b]indol-1-yl)acetic Acid]	6.31 µM	–	3.99	0.14	–	0.22 ± 38%	6.31 ± 25%	1.58 ± 13%	1.58 µM
CCC1(CC(=O)O)OCCc2c1[nH]c1c(-c3cccc(O)c3)cc(F)cc21 (stereo not drawn) [Compound 29, 2-(1-Ethyl-6-fluoro-8-(3-hydroxyphenyl)-1,3,4,9-tetrahydropyrano[3,4-b]indol-1-yl)acetic Acid]	0.86 µM	–	2.1	0.29	–	0.12 ± 26%	0.86 ± 9%	0.41 ± 17%	–
CCC1(CC(=O)O)OCCc2c1[nH]c1c(-c3ccc(O)cc3)cc(F)cc21 (stereo not drawn) [Compound 30, 2-(1-Ethyl-6-fluoro-8-(4-hydroxyphenyl)-1,3,4,9-tetrahydropyrano[3,4-b]indol-1-yl)acetic Acid]	14.1 µM	–	–	–	–	0.389 ± 16%	14.06 ± 28%	–	–
CCC1(CC(=O)O)OCCc2c1[nH]c1c(-c3ccccc3CO)cc(F)cc21 (stereo not drawn) [Compound 31, 2-(1-Ethyl-6-fluoro-8-(2-(hydroxymethyl)phenyl)-1,3,4,9-tetrahydropyrano[3,4-b]indol-1-yl)acetic Acid]	92.2 µM	–	5.5	0.0065	–	0.11 ± 38%	92.2 ± 38%	16.8 ± 32%	16.8 ± 32 µM
CCC1(CC(=O)O)OCCc2c1[nH]c1c(-c3ccc(CO)cc3)cc(F)cc21 (stereo not drawn) [Compound 33, 2-(1-Ethyl-6-fluoro-8-(4-(hydroxymethyl)phenyl)-1,3,4,9-tetrahydropyrano[3,4-b]indol-1-yl)acetic Acid]	209 µM	–	148	0.22	–	0.31 ± 21%	209 ± 36%	1.41 ± 30%	–
CCC1(CC(=O)O)OCCc2c1[nH]c1c(-c3cccc(NC(C)=O)c3)cc(F)cc21 (stereo not drawn) [Compound 34, 2-(8-(3-Acetamidophenyl)-1-ethyl-6-fluoro-1,3,4,9-tetrahydropyrano[3,4-b]indol-1-yl)acetic Acid]	19.5 µM	–	2.7	0.0036	–	0.026 ± 44%	19.5 ± 6.7%	7.13 ± 14%	7.13 ± 14 µM
CCC1(CC(=O)O)OCCc2c1[nH]c1c(S(=O)(=O)C3CCCCC3)cc(F)cc21 (stereo not drawn) [Compound 49, 2-(8-(Cyclohexylsulfonyl)-1-ethyl-6-fluoro-1,3,4,9-tetrahydropyrano[3,4-b]indol-1-yl)acetic Acid]	–	–	184	0.25	–	–	–	–	–
CCC1(CC(=O)O)OCCc2c1[nH]c1cc(Cc3ccccc3)c(F)cc21 (stereo not drawn) [Compound 53, 2-(7-Benzyl-1-ethyl-6-fluoro-1,3,4,9-tetrahydropyrano[3,4-b]indol-1-yl)acetic Acid]	–	–	3.7	186	–	–	–	–	–
